ChEMBL document CHEMBL1201862, “PubChem BioAssay data set” (2004)
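Each compound was tested at five concentrations against cells in 96-well plates for 48 hours. GI50: concentration for 50% inhibition of growth.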 Active and inactive are the calls of the source. No stated cut-off is given here; in the data, active = GI50 up to about 1.1 µM and inactive = higher.

Experiments:
Assay in all cases: NCI-60 cell line screen, 48 h
A549 = system: A549
BT-549 = system: BT-549
DU-145 = system: DU-145
HCC 2998 = system: HCC 2998
HCT-116 = system: HCT-116
HOP-92 = system: HOP-92
Hs-578T = system: Hs-578T
IGROV-1 = system: IGROV-1
KM12 = system: KM12
LOX IMVI = system: LOX IMVI
NCI-H23 = system: NCI-H23
NCI/ADR-RES = system: NCI/ADR-RES
OVCAR-5 = system: OVCAR-5
OVCAR-8 = system: OVCAR-8
SF-539 = system: SF-539
SK-MEL-28 = system: SK-MEL-28
U-251 = system: U-251
UACC-257 = system: UACC-257
UO-31 = system: UO-31
A498 = system: A498

Measured: GI50

O=[N+]([O-])c1ccc(-n2nc3ccc4c(no[n+]4[O-])c3n2)cc1
inactive: A549 12.4 µM | BT-549 > 100 µM | DU-145 35.4 µM | HCC 2998 > 100 µM | HCT-116 > 100 µM | HOP-92 5.82 µM | Hs-578T > 100 µM | IGROV-1 > 100 µM | KM12 > 100 µM | LOX IMVI > 100 µM | NCI-H23 > 100 µM | NCI/ADR-RES > 100 µM | OVCAR-5 > 100 µM | OVCAR-8 > 100 µM | SF-539 > 100 µM | SK-MEL-28 > 100 µM | U-251 > 100 µM | UACC-257 > 100 µM | UO-31 15.1 µM

Fc1ccc(Oc2nc3ccc(C(F)(F)F)cc3nc2-c2ccccc2)cc1
inactive: A549 36.6 µM | BT-549 > 100 µM | DU-145 > 100 µM | HCC 2998 14.5 µM | HCT-116 85.1 µM | Hs-578T 28.2 µM | IGROV-1 > 100 µM | KM12 > 100 µM | LOX IMVI > 100 µM | NCI-H23 77.3 µM | NCI/ADR-RES > 100 µM | OVCAR-5 > 100 µM | OVCAR-8 > 100 µM | SF-539 30.8 µM | UACC-257 47.2 µM | UO-31 44.3 µM

c1ccc2c(c1)-c1nc3ccccc3cc1C2N1CCOCC1 (stereo not drawn)
inactive: A498 > 100 µM | A549 > 100 µM | BT-549 > 100 µM | DU-145 > 100 µM | HCT-116 > 100 µM | Hs-578T 46.6 µM | IGROV-1 79.4 µM | KM12 > 100 µM | LOX IMVI > 100 µM | NCI-H23 > 100 µM | NCI/ADR-RES 81.3 µM | OVCAR-5 > 100 µM | OVCAR-8 93.5 µM | SK-MEL-28 > 100 µM | U-251 > 100 µM | UACC-257 > 100 µM | UO-31 1.37 µM

CSC1=N/C(=C\c2ccc(C)cc2)C(=O)N1
inactive: A549 > 100 µM | BT-549 37.8 µM | DU-145 > 100 µM | HCC 2998 66.2 µM | HCT-116 40.6 µM | HOP-92 50.9 µM | Hs-578T 32.6 µM | IGROV-1 > 100 µM | KM12 > 100 µM | LOX IMVI 57.3 µM | NCI-H23 51.8 µM | NCI/ADR-RES > 100 µM | OVCAR-5 > 100 µM | OVCAR-8 95.3 µM | SF-539 41.9 µM | SK-MEL-28 > 100 µM | U-251 65.3 µM | UACC-257 > 100 µM | UO-31 47.8 µM

O=c1c2nc3ccccc3c(=O)n2ncn1-c1ccccc1Cl
inactive: A498 > 100 µM | A549 > 100 µM | BT-549 > 100 µM | DU-145 > 100 µM | HCC 2998 > 100 µM | HCT-116 > 100 µM | HOP-92 > 100 µM | Hs-578T > 100 µM | IGROV-1 > 100 µM | KM12 > 100 µM | LOX IMVI > 100 µM | NCI-H23 > 100 µM | OVCAR-5 > 100 µM | OVCAR-8 > 100 µM | SF-539 > 100 µM | SK-MEL-28 > 100 µM | U-251 > 100 µM | UACC-257 > 100 µM | UO-31 > 100 µM

N#Cc1c(-c2cccc(Br)c2)cc(-c2ccc(Cl)cc2)nc1N
inactive: A549 21 µM | BT-549 33 µM | DU-145 46 µM | HCC 2998 17.3 µM | HCT-116 16.1 µM | HOP-92 11.2 µM | Hs-578T 19.1 µM | IGROV-1 14 µM | KM12 20.9 µM | LOX IMVI 15.8 µM | NCI-H23 25 µM | NCI/ADR-RES 22.2 µM | OVCAR-5 25.5 µM | OVCAR-8 32 µM | SF-539 18.1 µM | U-251 16.4 µM | UACC-257 17.3 µM | UO-31 19 µM
